Experimental data taken from US11820762B2, “Compounds as potential therapeutic agents targeting various neurodegenerative diseases” (The Hong Kong University of Science and Technology, priority 2020, dated 2023).
“Also recorded” adds a separate entry of the source. Read-outs that look alike come from different tables or passages of the source.

What was measured:
[1] = system: GMR-GAL4-(G4C2)29 Drosophila; test: Drosophila feeding and external eye assay; assay type: in vivo; conditions: 100 μM in solid food during larval stage; day 7 after eclosion
Method: A fly line expressing 29 GGGGCC repeats (29R) (SEQ ID NO: 6), under the GMR-GAL4 promoter (GMR-GAL4-(G4C2)29 (SEQ ID NO: 6)), was used. Both GMR-GAL4-(G4C2)29 (SEQ ID NO: 6) and WT flies were raised at room temperature (25° C.) on a cornmeal medium supplemented with dry yeast. […] Parent flies for cross were set in solid food containing testing compound, and F1 larvae were thus fed with food continuously until eclosion. After eclosion, F1 flies were transferred to normal food containers without compounds.
Eye images of GMR-GAL4-(G4C2)29 (SEQ ID NO: 6) or WT adult flies at day 7 after eclosion were captured using a CCD camera on an Olympus stereomicroscope. Eye morphologies of flies in different treatment groups were compared to evaluate the retina degeneration level. The affected eye area and total eye area were measured to calculate the degeneration ratio by ImageJ.
We next treated WT Drosophila and Drosophila with GMR-GAL4 driver promoted expression of (G4C2)29-repeats (SEQ ID NO: 6) (GMR-GAL4-(G4C2)29) (SEQ ID NO: 6) with cA or cC by feeding larvae with compounds in solid food. DMSO was used as a negative control. The eyes of day 7 adult Drosophila with GMR-GAL4-(G4C2)29 (SEQ ID NO: 6) were much rougher than the same age WT fly, indicating eye degeneration (FIG. 8E). The affected eye degeneration area accounted for over 50% of the whole eye (FIG. 8F).

[2] = system: Neuro2a cells transfected with DNA (G4C2)29; test: Cell viability of Neuro2a cells transfected with DNA (G4C2)29 (C9orf72 ALS/FTD cell model); assay type: cell-based; conditions: for effect on cell viability of (G4C2)29-transfected Neuro2a cells: 1 μg/ml; for viability at 1 µg/mL: Mus musculus, N2a, read-out: cell viability in (G4C2)29-cells
Method: (§1) Cytotoxicity of compounds was tested by MTT assay. Cells were grown in DMEM (Gibco) with 10% FBS and 1% penicillin-streptomycin at 37° C. with 5% CO2. In total, 5×10^3 cells were seeded in each well of 96-well plates and cultured for 24 hours. Then cells were treated with different concentrations of compounds dissolved in DMSO for another 24 hours. After incubating with 20 μl of MTT (5 mg/mL) for each well at 37° C. for another four hours, 100 μl of DMSO was added to dissolve formazan. Absorbance was measured using a Multiskan™ FC microplate photometer at 570 nm. IC50 data were analyzed with GraphPad Prism software.
DNA constructs were transfected to neuronal Neuro2a cell lines using Lipofectamine 2000 (Thermo Fisher Scientific, 11668019). 4 to 6 hours after transfection, fresh culture medium was used to replace the transfection medium, and cells were incubated for another 48 hours to allow recovery and construct expression.

[3] = system: differentiated HT22 cells; test: cells; assay type: cell-based; conditions: for neuroprotective activity compared with cA: comparison of analogs; for EC50: Mus musculus, HT-22, differentiated HT22 cells pre-treated with 5 mM L-glutamate, cell viability
Method: as §1
Cultured HT22 cells were differentiated by applying 10 μM retinoic acid (Sigma-Aldrich, R2625-50MG) and 500 μM cAMP (Sigma-Aldrich, A6885) in DEME medium supplied with 0.5% FBS (differentiation medium) and incubated 48 hours before adding other treatments. 5 mM L-glutamate acid was applied to the original differentiation medium for further 24-hours incubation. Cell viability was measured by MTT assay described above.
In the C9orf72 associated ALS/FTD, the G4C2 HRE make motor neurons more vulnerable to aberrant neuron excitation^43. Meanwhile, the hyperactivation of glutamate receptors drives a toxic level of neuronal activity, promoting the non-ATG (RAN) translation of G4C2 repeat-associated DPR proteins^44, leading to further toxicity of motor neurons. Thus, we would like to test our compounds in a glutamate (E)-induced excitotoxicity cell model.

Tau-R3 = molecular target: T1, Tau-R3 (Homo sapiens, UniProt P10636); test: Thioflavin T (ThT) fluorescent tau-R3 aggregation assay; assay type: biochemical; conditions: 20 μM Tau-R3, 10 μM heparin, read-out: IC50 of Tau-R3 aggregation inhibition (converted)
T1 construct: Tau-R3 protein was synthesized and purchased from ChinaPeptides Co., Ltd; purchased ChinaPeptides Co., Ltd; host or cells: chemical synthesis
Method: Tau-R3 protein was synthesized and purchased from ChinaPeptides Co., Ltd. ThT (ab120751, 1 mM) solution was freshly prepared in 50 mM Tris-HCl buffer (pH 7.4) and passed through a 0.45 μm pore size filter to remove insoluble particles before use. Tau-R3 (20 μM) was incubated with 20 μM ThT and 10 μM heparin in the presence or absence of cA, cB and cC. Samples in 200 μL were added to 96-well plates and incubated at 37° C. for 24-48 hours. ThT fluorescence intensity was recorded using a microplate reader with 440/480 nm excitation/emission filters at different time points. Non-linear regression analysis was performed to fit the boltzmann sigmoidal.
In the C9orf72 ALS/FTD, there is a strong genetic association between the microtubule-binding protein, tau and the G4C2 HRE. […] The co-expression of Tau and G4C2 repeats produces a synergistic deterioration of the neurodegeneration phenotype of ALS/FTD^46. Considering the tight correlation of Tau aggregation with the ALS/FTD pathogenesis, we tested our compounds in a non-cell-based Tau-R3 aggregation inhibition assay. […] Moreover, we conducted high magnification TEM imaging to characterize the morphological changes of Tau-R3 fibrils with cA, cB and cC treatments. […] Furthermore, the misfolding of tau protein into filaments in neurons of the central nervous system can be found in various neurodegenerative diseases, such as Alzheimer's disease et al. Therefore, the inhibition on tau aggregation represented a potential of cA and its derivatives in targeting multiple other neurodegenerative diseases more than ALS.

T1 sequence (P10636 623-653 limits assumed): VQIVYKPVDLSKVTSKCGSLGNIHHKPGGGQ

Row | Compound | eye degeneration phenotype [1] | effect on cell viability of (G4C2)29-transfected Neuro2a cells [2] | viability at 1 µg/mL [2] | neuroprotective activity compared with cA [3] | IC50 (Tau-R3) | cytotoxicity (structure-activity summary) [3] | EC50 [3] | viability at 1 µg/mL ([2]; 1 μg/mL, model group 20%)
1 | CC(=O)Cc1cc2c(c(O)c1C(=O)O)-c1c(c(O)c3oc4c(O[C@@H]5O[C@H](C(=O)O)[C@@H](O)[C@H](O)[C@H]5O)cccc4c(=O)c3c1O)CC2 [cC, chrexanthomycin C] | significantly rescuing the eye degeneration phenotype | partially increased the cell viability | 40% | better neuroprotective activity than cA | 5760 nM | – | – | –
2 | COc1c2c(c(O)c3c(=O)c4cccc(O[C@@H]5OC(C(=O)O)=C[C@H](O)[C@H]5O)c4oc13)-c1c(cc(CC(C)=O)c(C(=O)O)c1O)CC2 [cB, chrexanthomycin B] | – | made it worse; also recorded: even worse than the model group | – | worse than cA | 2050 nM | potent cytotoxicity | 11100 nM | –
3 | CC(=O)Cc1cc2c(c(O)c1C(=O)O)-c1c(c(O)c3oc4c(O[C@@H]5OC(C(=O)O)=C[C@H](O)[C@H]5O)cccc4c(=O)c3c1O)CC2 [cA, chrexanthomycin A] | significantly rescuing the eye degeneration phenotype | partially increased the cell viability | – | – | ~518 nM | – | 310 nM | 30%
